Legend:
[1] = target: T1, PPARδ (Homo sapiens, UniProt Q03181); experiment: Transfection Assay for PPARδ Receptors (PPAR-Gal4 / Gal4-Luciferase reporter in HEK293 cells); type: cell-based; details: values in square brackets
T1 construct: a Gal4-Luciferase reporter is co-transfected
T1 sequence (Q03181 171-441 limits assumed): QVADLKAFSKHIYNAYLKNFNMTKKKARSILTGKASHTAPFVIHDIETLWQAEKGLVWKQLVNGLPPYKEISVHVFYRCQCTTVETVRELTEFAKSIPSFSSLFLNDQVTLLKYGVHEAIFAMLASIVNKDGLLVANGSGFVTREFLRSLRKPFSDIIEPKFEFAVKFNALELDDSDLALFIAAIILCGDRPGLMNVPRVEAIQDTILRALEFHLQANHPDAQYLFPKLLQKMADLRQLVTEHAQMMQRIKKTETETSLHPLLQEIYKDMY
In short: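 HEK293 cells co-transfected with PPAR-Gal4 receptor and Gal4-luciferase reporter, then moved into 5% charcoal-treated FBS medium. Compounds applied for 24 h at 37 °C, 5% CO2; luciferase activity read with Steady-Glo.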

[2] = target: T2, PPARγ (Homo sapiens, UniProt P37231); experiment: aP2 Assay for PPAR gamma Agonists (bDNA aP2 mRNA in preadipocytes); type: cell-based; details: values in square brackets
T2 construct: Following the challenge of the preadipocytes, cells may be lysed with lysis buffer; endogenous in cells; host or cells: preadipocytes
T2 sequence (P37231 1-505): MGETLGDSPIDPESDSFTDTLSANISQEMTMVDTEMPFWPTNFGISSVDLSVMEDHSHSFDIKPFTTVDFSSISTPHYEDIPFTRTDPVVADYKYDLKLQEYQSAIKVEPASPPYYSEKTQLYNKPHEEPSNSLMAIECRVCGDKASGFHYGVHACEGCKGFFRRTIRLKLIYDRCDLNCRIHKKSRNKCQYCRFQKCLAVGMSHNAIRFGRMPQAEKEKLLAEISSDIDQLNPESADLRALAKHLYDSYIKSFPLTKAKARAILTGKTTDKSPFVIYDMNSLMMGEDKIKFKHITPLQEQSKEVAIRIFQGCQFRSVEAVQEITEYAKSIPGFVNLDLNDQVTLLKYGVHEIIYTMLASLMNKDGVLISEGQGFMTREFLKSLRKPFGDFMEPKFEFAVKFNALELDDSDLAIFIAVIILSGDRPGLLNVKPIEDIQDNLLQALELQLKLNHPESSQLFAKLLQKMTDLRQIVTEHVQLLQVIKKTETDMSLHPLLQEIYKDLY

CCN(C(=O)Nc1ccc(OC(F)(F)F)cc1)C1CCc2cc(SC(C)(C)C(=O)O)c(F)cc2C1 (centres unmarked) [Example 50, 2-{6-[1-Ethyl-3-(4-trifluoromethoxyphenyl)ureido]-3-fluoro-5,6,7,8-tetrahydronaphthalen-2-ylsulfanyl}-2-methylpropionic acid]
EC50 [1]: > 3 µM
EC50 [2]: > 3 µM

Reference: patent US20040171680A1, “Treating Syndrome X with substituted tetralins and indanes” (priority 2002, published 2004)
